US20260265244A1, “HETEROCYCLIC COMPOUNDS AS STING ANTAGONISTS” (Boehringer Ingelheim International GmbH, priority 2022, published 2026)

System: STING inhibition in human whole blood (IFNα2α production)
Assay: Human whole blood assay (HWBA): cGAMP-stimulated IFNα2α production
Assay type: cell-based
Conditions: Homo sapiens
Procedure, shortened: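 Na-citrate human whole blood from ≥3 healthy donors, preincubated 60 min at room temperature with compound (8 concentrations, top 10 μM, ~1:5 steps, 0.1% DMSO), then stimulated with cGAMP and incubated 22 h at 37 °C. Plasma IFNα2α measured by MSD immunoassay; % control versus stimulated/unstimulated wells, IC50 by 4-parameter logistic fit.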

Row | IC50 [nM] | SMILES
1 | 150 | Cc1c(C(C)C)c(-c2cccc3nn(C[C@H](O)c4ccccc4)cc23)nn1-c1cc2cn(C)nc2nc1C1CCOC1 (stereo partly drawn) [Example 47, (1R)-2-(4-{5-methyl-1-[2-methyl-6-(oxolan-3-yl)-2H-pyrazolo[3,4-b]pyridin-5-yl]-4-(propan-2-yl)-1H-pyrazol-3-yl}-2H-indazol-2-yl)-1-phenylethan-1-ol]
2 | 160 | Cc1c(C(C)C)c(-c2cccc3nn(C[C@H](O)c4ccccc4)cc23)nn1-c1cc2cn(C)nc2[n+]([O-])c1C1CC1 [Example 50, 6-cyclopropyl-5-(3-{2-[(2R)-2-hydroxy-2-phenylethyl]-2H-indazol-4-yl}-5-methyl-4-(propan-2-yl)-1H-pyrazol-1-yl)-2-methyl-2H-pyrazolo[3,4-b]pyridin-7-ium-7-olate]
3 | 170 | Cc1c(C(C)C)c(-c2cccc3nn(C[C@H](O)c4ccccc4)cc23)nn1-c1cc2cn(C)nc2nc1C1(F)CC1 [Example 51, (1R)-2-(4-{1-[6-(1-fluorocyclopropyl)-2-methyl-2H-pyrazolo[3,4-b]pyridin-5-yl]-5-methyl-4-(propan-2-yl)-1H-pyrazol-3-yl}-2H-indazol-2-yl)-1-phenylethan-1-ol]
4 | 200 | Cc1c(C(C)C)c(-c2cccc3nn(C[C@H](O)c4ccccc4)cc23)nn1-c1cc2cn(C)nc2nc1CC1CC1 [Example 54, (1R)-2-(4-{1-[6-(cyclopropylmethyl)-2-methyl-2H-pyrazolo[3,4-b]pyridin-5-yl]-5-methyl-4-(propan-2-yl)-1H-pyrazol-3-yl}-2H-indazol-2-yl)-1-phenylethan-1-ol]
5 | 210 | Cc1nc2nn(CC3CC3)cc2cc1-n1nc(-c2cccc3nn(C[C@H](O)c4ccccc4)cc23)c(C(C)C)c1C [Example 56, (1R)-2-(4-{1-[2-(cyclopropylmethyl)-6-methyl-2H-pyrazolo[3,4-b]pyridin-5-yl]-5-methyl-4-(propan-2-yl)-1H-pyrazol-3-yl}-2H-indazol-2-yl)-1-phenylethan-1-ol]
6 | 230 | COC(C)c1nc2nn(C)cc2cc1-n1nc(-c2cccc3nn(C[C@H](O)c4ccccc4)cc23)c(C(C)C)c1C (stereo partly drawn) [Example 58, (1R)-2-(4-{1-[6-(1-methoxyethyl)-2-methyl-2H-pyrazolo[3,4-b]pyridin-5-yl]-5-methyl-4-(propan-2-yl)-1H-pyrazol-3-yl}-2H-indazol-2-yl)-1-phenylethan-1-ol]
7 | 300 | Cc1c(C(C)C)c(-c2cccc3nn(C[C@H](O)c4ccccc4)cc23)nn1-c1cc2cn(C)nc2nc1C(F)F [Example 64, (1R)-2-(4-{1-[6-(difluoromethyl)-2-methyl-2H-pyrazolo[3,4-b]pyridin-5-yl]-5-methyl-4-(propan-2-yl)-1H-pyrazol-3-yl}-2H-indazol-2-yl)-1-phenylethan-1-ol]
8 | 320 | Cc1nc2nn(C)cc2cc1-n1nc(-c2cccc3nn(CCc4ccc(OCCN(C)C)cc4)cc23)c(C(C)C)c1C [Example 65, [2-(4-{2-[4-(1-{2,6-dimethyl-2H-pyrazolo[3,4-b]pyridin-5-yl}-5-methyl-4-(propan-2-yl)-1H-pyrazol-3-yl)-2H-indazol-2-yl]ethyl}phenoxy)ethyl]dimethylamine]
9 | 320 | Cc1nc2nn(C)cc2cc1-n1nc(-c2cccc3nn(C[C@H](OCCCCO)c4ccccc4)cc23)c(C(C)C)c1C [Example 66, 4-[(1R)-2-[4-(1-{2,6-dimethyl-2H-pyrazolo[3,4-b]pyridin-5-yl}-5-methyl-4-(propan-2-yl)-1H-pyrazol-3-yl)-2H-indazol-2-yl]-1-phenylethoxy]butan-1-ol]

Continued, molecule first:

Row | SMILES | IC50 [nM]
10 | Cc1nc2nn(C)cc2cc1-n1nc(-c2cccc3nn(C[C@H](O)c4ccc(F)cc4)cc23)c(C(C)C)c1C [Example 46, (1R)-2-[4-(1-{2,6-dimethyl-2H-pyrazolo[3,4-b]pyridin-5-yl}-5-methyl-4-(propan-2-yl)-1H-pyrazol-3-yl)-2H-indazol-2-yl]-1-(4-fluorophenyl)ethan-1-ol] | 140
11 | CCCn1cc2cc(-c3nc(-c4cccc5nn(CC(F)(F)c6ccccc6)cc45)c(C4CC4)n3C)c(C3CC3)nc2n1 [Example 48, 4-(5-cyclopropyl-2-{6-cyclopropyl-2-propyl-2H-pyrazolo[3,4-b]pyridin-5-yl}-1-methyl-1H-imidazol-4-yl)-2-(2,2-difluoro-2-phenylethyl)-2H-indazole] | 150
12 | Cc1nc2nn(CCCN3CCOCC3)cc2cc1-n1nc(-c2cccc3nn(C[C@H](F)c4ccccc4)cc23)c(C(C)C)c1C [Example 49, 2-[(2R)-2-fluoro-2-phenylethyl]-4-(5-methyl-1-{6-methyl-2-[3-(morpholin-4-yl)propyl]-2H-pyrazolo[3,4-b]pyridin-5-yl}-4-(propan-2-yl)-1H-pyrazol-3-yl)-2H-indazole] | 160
13 | CO[C@@H](Cn1cc2c(-c3nn(-c4cc5cn(C)nc5nc4C)c(C)c3C(C)C)cccc2n1)c1ccccc1 [Example 52, 4-(1-{2,6-dimethyl-2H-pyrazolo[3,4-b]pyridin-5-yl}-5-methyl-4-(propan-2-yl)-1H-pyrazol-3-yl)-2-[(2R)-2-methoxy-2-phenylethyl]-2H-indazole] | 180
14 | Cc1c(C(C)C)c(-c2cccc3nn(C[C@H](O)c4ccccc4)cc23)nn1-c1cc2cn(C)nc2nc1C1CCC1 [Example 53, (1R)-2-[4-(1-{6-cyclobutyl-2-methyl-2H-pyrazolo[3,4-b]pyridin-5-yl}-5-methyl-4-(propan-2-yl)-1H-pyrazol-3-yl)-2H-indazol-2-yl]-1-phenylethan-1-ol] | 190
15 | Cn1cc2cc(-c3nc(-c4cccc5nn(C[C@H](O)c6ccc(O)cc6)cc45)c(C4CC4)n3C)c(C3CC3)nc2n1 [Example 55, 4-[(1R)-2-[4-(5-cyclopropyl-2-{6-cyclopropyl-2-methyl-2H-pyrazolo[3,4-b]pyridin-5-yl}-1-methyl-1H-imidazol-4-yl)-2H-indazol-2-yl]-1-hydroxyethyl]phenol] | 200
16 | CC(C)c1c(-c2cccc3nn(C[C@H](O)c4ccccc4)cc23)nc(-c2cc3cn(C)nc3nc2C(F)(F)F)n1C [Example 57, (1R)-2-(4-{1-methyl-2-[2-methyl-6-(trifluoromethyl)-2H-pyrazolo[3,4-b]pyridin-5-yl]-5-(propan-2-yl)-1H-imidazol-4-yl}-2H-indazol-2-yl)-1-phenylethan-1-ol] | 230
17 | CCCc1nc2nn(C)cc2cc1-n1nc(-c2cccc3nn(C[C@H](O)c4ccccc4)cc23)c(C(C)C)c1C [Example 60, (1R)-2-[4-(5-methyl-1-{2-methyl-6-propyl-2H-pyrazolo[3,4-b]pyridin-5-yl}-4-(propan-2-yl)-1H-pyrazol-3-yl)-2H-indazol-2-yl]-1-phenylethan-1-ol] | 240
18 | Cc1nc2nn(Cc3ncnn3C)cc2cc1-n1nc(-c2cccc3nn(C[C@H](O)c4ccccc4)cc23)c(C(C)C)c1C [Example 62, (1R)-2-[4-(5-methyl-1-{6-methyl-2-[(1-methyl-1H-1,2,4-triazol-5-yl)methyl]-2H-pyrazolo[3,4-b]pyridin-5-yl}-4-(propan-2-yl)-1H-pyrazol-3-yl)-2H-indazol-2-yl]-1-phenylethan-1-ol] | 300
19 | Cc1nc2nn(C)cc2cc1-n1nc(-c2cccc3nn(C[C@H](OCC4CC4)c4ccccc4)cc23)c(C(C)C)c1C [Example 63, 2-[(2R)-2-(cyclopropylmethoxy)-2-phenylethyl]-4-(1-{2,6-dimethyl-2H-pyrazolo[3,4-b]pyridin-5-yl}-5-methyl-4-(propan-2-yl)-1H-pyrazol-3-yl)-2H-indazole] | 300
